Legend:
[1] = target: T1, rat and/or human FAAH enzyme (UniProt P97612); test: FAAH inhibition assay; assay type: biochemical; settings: rat or human FAAH inhibition assay as in Rahn et al. (2011)
T1 sequence (P97612 1-579): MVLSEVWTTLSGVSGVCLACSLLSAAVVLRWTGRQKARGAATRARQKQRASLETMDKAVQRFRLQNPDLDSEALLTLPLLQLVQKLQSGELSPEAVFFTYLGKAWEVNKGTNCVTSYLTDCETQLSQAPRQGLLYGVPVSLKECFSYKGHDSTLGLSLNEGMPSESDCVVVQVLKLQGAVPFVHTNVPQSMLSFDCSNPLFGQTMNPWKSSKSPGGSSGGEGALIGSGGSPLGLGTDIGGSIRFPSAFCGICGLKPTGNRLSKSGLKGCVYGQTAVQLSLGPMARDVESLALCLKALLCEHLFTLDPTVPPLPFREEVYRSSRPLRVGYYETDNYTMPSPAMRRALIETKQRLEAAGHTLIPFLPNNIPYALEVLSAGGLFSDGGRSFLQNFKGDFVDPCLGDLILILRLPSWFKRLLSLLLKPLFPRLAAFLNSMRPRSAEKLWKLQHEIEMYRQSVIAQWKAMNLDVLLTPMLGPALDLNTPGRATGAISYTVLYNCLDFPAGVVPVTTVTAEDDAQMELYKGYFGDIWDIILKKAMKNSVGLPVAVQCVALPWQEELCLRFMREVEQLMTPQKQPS
From the text: Biochem and Behavior 98: 493. […] Particular FAAH inhibitor compounds for use with the invention include those disclosed in the following references: Deng, H (2010) Expert Opin. Drug Discovery 5(10): 961-993 and Blankman (2013) Pharmacol Rev 65:849-871, Seierstad (2008) J. Med. Chem., 51 (23), pp 7327-7343, Ahn (2009) Expert Opin. Drug Discov. 4(7):763-784 and references cited therein.

BDNF = BDNF ELISA of hippocampus after kainic acid injection; assay type: in vivo, rat; settings: young rats (PND 22), kainic acid i.p. followed by 8 mg/kg i.p., 24 h; vs vehicle, p<0.001; FIG. 1B
Procedure: (§1) Young rats (PND 22) were injected i.p. with kainic acid (KA), followed immediately by vehicle (veh) or the FAAH inhibitor, Compound 1 (8 mg/kg, i.p.). After 24 h, hippocampus was rapidly dissected, and the homogenates were centrifuged to obtain supernatant for ELISA measures of GDNF) and BDNF. Standard curves were used to convert measures to pg cytokine per mg supernatant protein (±SEM). Unpaired t-tests: GDNF, *p<0.02; BDNF, ***p<0.001.

GDNF = GDNF ELISA of hippocampus after kainic acid injection; assay type: in vivo, rat; settings: young rats (PND 22), kainic acid i.p. followed by 8 mg/kg i.p., 24 h; vs vehicle, p<0.02; FIG. 1A
Procedure: as §1

**Q.** Which results are given for `O=C(CCCOc1ccc(OCc2ccccc2)cc1)C(F)(F)F` [Compound 1, 5-(4-(benzyloxy)phenoxy)-1,1,1-trifluoropentan-2-one]?
**A.** IC50 [1]: 42 nM; BDNF levels in hippocampus (ELISA) (BDNF): protects against excitotoxin-induced reduction in BDNF; GDNF levels in hippocampus (ELISA) (GDNF): enhances GDNF levels

— US20160136110A1, “Method for Treating a Neurodegenerative Event” (MAKScientific, LLC, priority 2012, published 2016)
